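96-well plates; 48 h exposure; 5 concentrations. Endpoints by linear interpolation between flanking doses. Not reached: highest tested concentration assigned. At the GI50, growth is halved.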 Activity calls are given as the source filed them. Rule as the data show it: active = GI50 up to about 1.1 µM and inactive = higher.
Experiments:
Experiment in all cases: NCI anticancer screen, dose series, 48 h
[1] = system: UACC-62
[2] = system: KM12
[3] = system: MOLT-4
[4] = system: HCT-116
[5] = system: ACHN
[6] = system: SK-MEL-5
[7] = system: K562
[8] = system: SR
[9] = system: HT-29
[10] = system: A549
[11] = system: COLO 205
[12] = system: NCI/ADR-RES
[13] = system: IGROV-1
[14] = system: LOX IMVI
[15] = system: NCI-H226
[16] = system: NCI-H460
[17] = system: SW-620
[18] = system: EKVX
[19] = system: SF-539
[20] = system: SNB-19

Measured: GI50

O=C1/C(=C/c2ccco2)N=C(c2ccccc2)N1c1ccc(S(=O)(=O)Nc2nccs2)cc1
inactive: [1] 93.5 µM | [2] > 100 µM | [3] 43.4 µM | [4] > 100 µM | [5] 74.6 µM | [6] 87.9 µM | [7] > 100 µM | [8] > 100 µM | [9] > 100 µM | [10] 89.7 µM | [11] > 100 µM | [12] > 100 µM | [13] > 100 µM | [14] > 100 µM | [15] > 100 µM | [16] 45.9 µM | [17] > 100 µM | [18] 33.2 µM | [19] > 100 µM

CC(C)(C)C1CCC2c3c([nH]c4ccccc34)C3C(=O)N(c4cccc([N+](=O)[O-])c4)C(=O)C3C2C1 (configuration not stated)
inactive: [1] 23.4 µM | [2] 5.62 µM | [3] 6.84 µM | [20] 55.8 µM | [4] 11.6 µM | [5] 36.2 µM | [7] > 100 µM | [8] 18.2 µM | [9] 17.7 µM | [10] 39.5 µM | [11] 21.2 µM | [12] 27.1 µM | [13] 19.8 µM | [14] 17.8 µM | [15] 25.4 µM | [16] 13.6 µM | [17] 57.8 µM | [18] 22.4 µM | [19] 49.9 µM

CC1OC(n2cnc3c(N)nc(Cl)nc32)C(C)(O)C1O (configuration not stated)
inactive: [1] > 25 µM | [2] > 25 µM | [3] > 25 µM | [20] > 25 µM | [4] > 25 µM | [5] > 25 µM | [6] > 25 µM | [7] > 25 µM | [8] > 25 µM | [9] > 25 µM | [10] > 25 µM | [11] > 25 µM | [12] > 25 µM | [13] > 25 µM | [14] > 25 µM | [15] > 25 µM | [17] > 25 µM | [18] > 25 µM | [19] > 25 µM

CCC(c1ccccc1)c1cc(C(C)(C)C)cc(C(C)(C)C)c1O (configuration not stated)
inactive: [1] 18 µM | [2] 18.4 µM | [20] 18.3 µM | [4] 12.9 µM | [5] 18.6 µM | [6] 18.1 µM | [7] 16.7 µM | [8] 31.7 µM | [9] 14.9 µM | [10] 16.3 µM | [11] 18.7 µM | [12] 15.4 µM | [13] 17 µM | [14] 18 µM | [15] 18.9 µM | [16] 17.5 µM | [17] 16.5 µM | [18] 17.8 µM | [19] 17.4 µM

CC(=O)OC[C@@H]1[C@H]2CC[C@]3(C)[C@@H](OC(C)=O)CC[C@H]3[C@@H]2CC[C@H]1C1(C)SCCS1
inactive: [2] > 25 µM | [3] > 25 µM | [20] > 25 µM | [4] > 25 µM | [5] > 25 µM | [6] 23.2 µM | [7] > 25 µM | [8] > 25 µM | [9] > 25 µM | [10] > 25 µM | [11] > 25 µM | [12] > 25 µM | [13] > 25 µM | [14] > 25 µM | [15] > 25 µM | [16] > 25 µM | [17] > 25 µM | [18] > 25 µM | [19] > 25 µM

COc1ccc(/N=N/C(=N/NC(=O)c2ccc(C)cc2)c2ccc(N(CCC#N)CCC#N)cc2OC)cc1
inactive: [1] > 100 µM | [2] > 100 µM | [3] > 100 µM | [20] > 100 µM | [4] > 100 µM | [5] > 100 µM | [6] > 100 µM | [7] > 100 µM | [8] 36.6 µM | [9] > 100 µM | [10] > 100 µM | [11] > 100 µM | [12] > 100 µM | [13] > 100 µM | [14] > 100 µM | [15] > 100 µM | [16] > 100 µM | [17] > 100 µM | [18] > 100 µM

CC1=CC(C)C(O)C(C)/C=C\C(O)C/C=C(/C)C(=O)CC(O)C(C)\C=C/C=C\C=C/C(=O)NC2=C(O)C(=O)c3c(cc(C)c(O)c3C1=O)C2=O (configuration not stated)
inactive: [1] 97.7 µM | [2] 56.2 µM | [3] 71.1 µM | [20] > 100 µM | [4] 58.1 µM | [5] > 100 µM | [6] 91 µM | [8] 31.9 µM | [9] 56.4 µM | [10] > 100 µM | [11] > 100 µM | [12] > 100 µM | [13] 74.8 µM | [14] > 100 µM | [16] > 100 µM | [17] > 100 µM | [18] > 100 µM | [19] 62.1 µM

Reference: ChEMBL document CHEMBL1201862, “PubChem BioAssay data set” (2004)
